One may read the IC50 as the concentration that gives 50% inhibition. In general, viability, T/C refers to the ratio of treated to control.

The experiment has as its system 327498-153-R-J2-PDC multicell spheroid viability. Briefly: Anticancer human tumor 327498-153-R-J2-PDC patient-derived uterine carcinosarcoma cell line growth inhibition [IpAb]. The note with it: for viability, T/C: stronger effect = lower value. Summed up: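 Combinations with ipatasertib or abemaciclib were tested on tumour spheroids holding HUVEC (25%) and MSC (15%) alongside 60% malignant cells. Top concentration was at or near clinical Cmax (10 microM if undefined), descending in half-log steps.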

Where [1] appears, read: curve of first compound, second compound 0.1 µM.
The mark [2] stands for this setting: curve of first compound, second compound 0.316 µM.
Setting [3] is: curve of first compound, second compound 1 µM.
[4] abbreviates: curve of first compound, second compound 3.16 µM.
The mark [5] stands for this setting: curve of first compound, second compound 10 µM.
[6] abbreviates: second compound 0.1 µM, first compound 0.0316 µM.
The mark [7] stands for this setting: second compound 0.1 µM, first compound 0.1 µM.
Where [8] appears, read: second compound 0.316 µM, first compound 0.0316 µM.
Where [9] appears, read: second compound 0.316 µM, first compound 0.1 µM.
[10] abbreviates: second compound 1 µM, first compound 0.0316 µM.
[11] abbreviates: second compound 1 µM, first compound 0.1 µM.

The structures appear in SMILES notation. Values joined by “and” are separate entries in the source; they are usually repeats but may differ in a detail not shown here. Identical values can stand only once.
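Note: spheroids exposed to agents for 7 days.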
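Throughout, for viability, T/C: 100% = DMSO vehicle control viability.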

With `CC(=O)c1c(C)c2cnc(Nc3ccc(N4CCNCC4)cn3)nc2n(C2CCCC2)c1=O` + CC(C)NCC(C(=O)N1CCN(c2ncnc3c2C(C)CC3O)CC1)c1ccc(Cl)cc1, the IC50 under setting [1] is over 300 nM; the IC50 under setting [2] amounted to 45.7 nM; the IC50 under setting [3] came to 7.23 nM; the IC50 under setting [4] worked out at 1.34 nM; the IC50 under setting [5] is under 0.949 nM. The viability, T/C runs as follows: (second compound 0.1 µM, first compound 0.000949 µM) 96.4%; (second compound 0.1 µM, first compound 0.003 µM) 101%; (second compound 0.1 µM, first compound 0.00949 µM) 91.2%; (second compound 0.1 µM, first compound 0.03 µM) 68.8%; (second compound 0.1 µM, first compound 0.0949 µM) 65.9%; (second compound 0.1 µM, first compound 0.3 µM) 55.4%. In addition, the viability, T/C (second compound 0.316 µM, first compound 0.000949 µM) was 81.6%; the viability, T/C (second compound 0.316 µM, first compound 0.003 µM) is 71.2%; the viability, T/C (second compound 0.316 µM, first compound 0.00949 µM) is 68.2%; the viability, T/C (second compound 0.316 µM, first compound 0.03 µM) was 51.8%; the viability, T/C (second compound 0.316 µM, first compound 0.0949 µM) is 44.1%; the viability, T/C (second compound 0.316 µM, first compound 0.3 µM) was 41.5%. In addition, the viability, T/C was 61.5% (second compound 1 µM, first compound 0.000949 µM); 57.5% (second compound 1 µM, first compound 0.003 µM); 48% (second compound 1 µM, first compound 0.00949 µM); 34.1% (second compound 1 µM, first compound 0.03 µM); 34.5% (second compound 1 µM, first compound 0.0949 µM); 31.3% (second compound 1 µM, first compound 0.3 µM). For the same compound, the viability, T/C (second compound 3.16 µM, first compound 0.000949 µM) is 51.7%; the viability, T/C (second compound 3.16 µM, first compound 0.003 µM) is 46.2%; the viability, T/C (second compound 3.16 µM, first compound 0.00949 µM) is 35.2%; the viability, T/C (second compound 3.16 µM, first compound 0.03 µM) was 33.4%; the viability, T/C (second compound 3.16 µM, first compound 0.0949 µM) was 25%; the viability, T/C (second compound 3.16 µM, first compound 0.3 µM) is 24.6%. For the same compound, the viability, T/C is 33.4% (second compound 10 µM, first compound 0.000949 µM); 36.7% (second compound 10 µM, first compound 0.003 µM); 28.1% (second compound 10 µM, first compound 0.00949 µM); 20.9% (second compound 10 µM, first compound 0.03 µM); 21.9% (second compound 10 µM, first compound 0.0949 µM); 21.9% (second compound 10 µM, first compound 0.3 µM).

Consider `CC(C)NCC(C(=O)N1CCN(c2ncnc3c2C(C)CC3O)CC1)c1ccc(Cl)cc1` (stereo not drawn), for which the viability, T/C (compound 0.1 µM) was 98.4% [middle of 13 runs]; the viability, T/C (compound 0.316 µM) is 80.2% [middle of 13 runs]; the viability, T/C (compound 1 µM) is 59.7% [middle of 13 runs]; the viability, T/C (compound 3.16 µM) was 48.1% [middle of 13 runs]; the viability, T/C (compound 10 µM) was 34.2% [middle of 13 runs]. Moreover, the IC50 (compound alone, run of 05/18/2021) is 2.46 µM [middle of 13 runs].

Turning to `Cn1nccc1Nc1nccc(-c2ccn(C(CO)c3ccc(Cl)c(F)c3)c(=O)c2)n1` (stereo not drawn) + CC(C)NCC(C(=O)N1CCN(c2ncnc3c2C(C)CC3O)CC1)c1ccc(Cl)cc1, the IC50 by setting is: under setting [1], 3260 nM; under setting [2], 684 nM; under setting [3], under 31.6 nM; under setting [4], under 31.6 nM; under setting [5], under 31.6 nM. Further, the viability, T/C runs as follows: under setting [6], 87.2%; under setting [7], 77.7%; (second compound 0.1 µM, first compound 0.316 µM) 71.4%; (second compound 0.1 µM, first compound 1 µM) 71.7%; (second compound 0.1 µM, first compound 3.16 µM) 47.9%; (second compound 0.1 µM, first compound 10 µM) 28.4%. The viability, T/C is, setting by setting: under setting [8], 68.3%; under setting [9], 59.6%; (second compound 0.316 µM, first compound 0.316 µM) 49.1%; (second compound 0.316 µM, first compound 1 µM) 51.7%; (second compound 0.316 µM, first compound 3.16 µM) 40.9%; (second compound 0.316 µM, first compound 10 µM) 22.5%. The viability, T/C is, setting by setting: under setting [10], 49.2%; under setting [11], 42.4%; (second compound 1 µM, first compound 0.316 µM) 33.8%; (second compound 1 µM, first compound 1 µM) 38.2%; (second compound 1 µM, first compound 3.16 µM) 30.5%; (second compound 1 µM, first compound 10 µM) 11.9%. Besides, the viability, T/C was 33.9% (second compound 3.16 µM, first compound 0.0316 µM); 30.4% (second compound 3.16 µM, first compound 0.1 µM); 28.1% (second compound 3.16 µM, first compound 0.316 µM); 27.7% (second compound 3.16 µM, first compound 1 µM); 20% (second compound 3.16 µM, first compound 3.16 µM); 9.15% (second compound 3.16 µM, first compound 10 µM). The viability, T/C is 28.5% (second compound 10 µM, first compound 0.0316 µM); 21.5% (second compound 10 µM, first compound 0.1 µM); 18% (second compound 10 µM, first compound 0.316 µM); 17.3% (second compound 10 µM, first compound 1 µM); 15.8% (second compound 10 µM, first compound 3.16 µM); 4.13% (second compound 10 µM, first compound 10 µM).

For `C=CCn1c(=O)c2cnc(Nc3ccc(N4CCN(C)CC4)cc3)nc2n1-c1cccc(C(C)(C)O)n1`, the viability, T/C (compound 0.0316 µM) is 97% and 97.5%; the viability, T/C (compound 0.1 µM) is 106% and 94.9%; the viability, T/C (compound 0.316 µM) is 56.2% and 56.8%; the viability, T/C (compound 1 µM) was 4.15% and 5.89%; the viability, T/C (compound 3.16 µM) is 3.83% and 4.76%; the viability, T/C (compound 10 µM) was 5.49% and 6.6%. Further, the IC50 (curve of compound) is 363 nM and 369 nM.

Regarding `Cn1ncnc1[C@H]1c2n[nH]c(=O)c3cc(F)cc(c23)N[C@@H]1c1ccc(F)cc1` + CCN1CCN(Cc2ccc(Nc3ncc(F)c(-c4cc(F)c5nc(C)n(C(C)C)c5c4)n3)nc2)CC1, the IC50 (curve of first compound, second compound 0.01 µM) was found to be 18.6 nM; the IC50 (curve of first compound, second compound 0.0316 µM) was 12.1 nM; the IC50 under setting [1] was 5.76 nM; the IC50 under setting [2] was 2.84 nM; the IC50 under setting [3] was 3.84 nM. In addition, the viability, T/C is 96% (second compound 0.01 µM, first compound 0.000316 µM); 87.3% (second compound 0.01 µM, first compound 0.001 µM); 85.3% (second compound 0.01 µM, first compound 0.00316 µM); 58.1% (second compound 0.01 µM, first compound 0.01 µM); 42.3% (second compound 0.01 µM, first compound 0.0316 µM); 25.2% (second compound 0.01 µM, first compound 0.1 µM). The viability, T/C is 74.8% (second compound 0.0316 µM, first compound 0.000316 µM); 70% (second compound 0.0316 µM, first compound 0.001 µM); 63.3% (second compound 0.0316 µM, first compound 0.00316 µM); 50.3% (second compound 0.0316 µM, first compound 0.01 µM); 41.2% (second compound 0.0316 µM, first compound 0.0316 µM); 28.2% (second compound 0.0316 µM, first compound 0.1 µM). Moreover, the viability, T/C is 68.3% (second compound 0.1 µM, first compound 0.000316 µM); 56.6% (second compound 0.1 µM, first compound 0.001 µM); 54.7% (second compound 0.1 µM, first compound 0.00316 µM); 47.2% (second compound 0.1 µM, first compound 0.01 µM); 39.6% under setting [6]; 28.9% under setting [7]. The viability, T/C is, setting by setting: (second compound 0.316 µM, first compound 0.000316 µM) 59%; (second compound 0.316 µM, first compound 0.001 µM) 54%; (second compound 0.316 µM, first compound 0.00316 µM) 49.3%; (second compound 0.316 µM, first compound 0.01 µM) 44.8%; under setting [8], 38.2%; under setting [9], 32.5%. Further, the viability, T/C is, setting by setting: (second compound 1 µM, first compound 0.000316 µM) 62.2%; (second compound 1 µM, first compound 0.001 µM) 53.9%; (second compound 1 µM, first compound 0.00316 µM) 51.4%; (second compound 1 µM, first compound 0.01 µM) 45.1%; under setting [10], 40.8%; under setting [11], 31.6%.

Source of the values: PubChem BioAssay AID2060341 (Molecular Pharmacology Branch, DTP, NCI, 2025).
